From publication PMC12717099, “Peptidoglycan recruitment by a penicillin binding protein” (Nature Communications, 2025)

Key:
PBP5 (PBP5_37-678) = assay: NMR chemical shift perturbation titration (2D [1H,15N] TROSY, 2D [1H,13C] ILV methyl HMQC) of stem peptides / PG into PBP5; assay type: binding, Enterococcus faecium; settings: peptides up to 1:80 PBP5:SP (SP3 1:1000); PG 1:0.25-1:5
Method: Data was processed using Topspin 4.1.4 (Bruker) and analyzed using NMRFAM-SPARKY 1.3 and Poky (build number 20240829)[20],[21]. The sequence-specific backbone assignment of PBP5 is publicly available at BMRBID 51690.
SPs (SP1 to SP7) were titrated into 0.5 mM (^2H,^15N)-labeled and 0.1 mM (^2H,^15N)/^13C ILV labeled PBP5 at molar ratios of 0:1, 5:1, 10:1, 20:1, 40:1, 60:1, and 80:1 (stem peptide/SP:PBP5; molar ratios). 2D [^1H,^15N] TROSY or 2D [^1H,^13C] HMQC spectra were recorded for each titration point. SPs were solubilized in NMR buffer. Chemical shift perturbations (Δδ) between PBP5 and SP bound PBP5 spectra were calculated using Eq. 1,1 Δδppm=ΔδH^2+ΔδX/Y^2 where, X is ^15N or ^13C and Y is the constant i.e., 10 for ^15N and 4 for ^13C.
Residues with significant CSPs were identified by calculating the standard deviation of all CSPs (σ), then excluding any CSPs larger than average+2σ, recalculating σ as a new corrected σ0, and then repetitively removing CSPs above 2σ0 until no additional CSPs can be removed. CSPs above ≥2σ2 was the statistical threshold for ^1H/^15N backbone CSP analysis and ≥2xσ1 for ^1H/^13C methyl ILV data for the interaction of SP1 with PBP5. The same threshold values were used for all other peptides to allow for direct comparison with the SP1/PBP5 interaction. The identical significance analysis was also performed for PenG/ceftaroline saturated PBP5 (1:8 molar ratio of PBP5 to β-lactam antibiotics was used to ensure saturation of an extended time period needed for the SP titrations) SP interaction studies; CSPs above ≥2σ3 was the statistical threshold for ^1H/^15N backbone CSP analysis and ≥2xσ2 for ^1H/^13C methyl ILV data to identify all residues with a statistically significant change in its chemical shift upon SP interaction.
Residue specific KD values were calculated by using Eq. 2[23],2 CSPobs=CSPmax/2PP+S+KD−P+S+KD^2−4[S][P] where P and S are the concentration of PBP5 and SP1, respectively. CSPobs is the experimentally observed chemical shift value and CSPmax is the largest experimentally observed chemical shift value of the residue. […] The lack of saturation was due to the limited amount of available SP peptide due to their difficult synthesis. Residues used for KD calculation were common residues with statistically significant CSPs in the interaction studies of SP1 and SP2 with PBP5 at a 1:80 ratio.

PBP5 = assay: 1D 1H STD NMR of stem peptides with PBP5; assay type: binding, Enterococcus faecium; settings: for STD % to SP1: normalised to highest SP1:PBP5 value; for STD amplification factor: protein:peptide 1:100, 2 s saturation, 308 K
Description: Total saturation time for STD measurements was 2 s.
Overlapped peaks were completely excluded from the analysis.

| Substance | interaction with PBP5 by CSPs, in words (PBP5 (PBP5_37-678)) | STD amplification factor as fraction of highest SP1:PBP5 value (PBP5; 1H DA4β, DLacβ) | STD % to SP1 (PBP5; 1H DA4β, DLacβ) [%] | STD amplification factor (PBP5; 1H DA4β, DLacβ) | STD amplification factor as fraction of highest SP1:PBP5 value (PBP5; 1H DA5β) | STD % to SP1 (PBP5; 1H DA5β) [%] | STD amplification factor (PBP5; 1H DA5β) | STD amplification factor as fraction of highest SP1:PBP5 value (PBP5; 1H DQ2β (first listed)) | STD % to SP1 (PBP5; 1H DQ2β (first listed)) [%] | STD amplification factor (PBP5; 1H DQ2β (first listed)) | STD amplification factor as fraction of highest SP1:PBP5 value (PBP5; 1H DQ2β (second listed)) | STD % to SP1 (PBP5; 1H DQ2β (second listed)) [%] | STD amplification factor (PBP5; 1H DQ2β (second listed)) | STD amplification factor as fraction of highest SP1:PBP5 value (PBP5; 1H DQ2γ) | STD % to SP1 (PBP5; 1H DQ2γ) [%] | STD amplification factor (PBP5; 1H DQ2γ) | STD amplification factor as fraction of highest SP1:PBP5 value (PBP5; 1H K3β) | STD amplification factor as fraction of highest SP1:PBP5 value (PBP5; 1H LA1β) | STD % to SP1 (PBP5; 1H LA1β) [%] | STD amplification factor (PBP5; 1H LA1β) | other results |
| --- | --- | --- | --- | --- | --- | --- | --- | --- | --- | --- | --- | --- | --- | --- | --- | --- | --- | --- | --- | --- | --- |
| D-Lac-L-Ala-D-iGln-L-Lys-D-Ala-D-Ala [SP5] | weaker interaction | 0.2031 | 20.3132 | 5.466 | 0.283 | 28.3024 | 7.616 | 0.5843 | 58.4308 | 15.7228 | 0.7133 | 71.3266 | 19.1928 | 0.2744 | 27.4437 | 7.385 | 0.5122 | 0.2119 | 21.1895 | 5.702 | STD amplification factor as fraction of highest SP1:PBP5 value (PBP5; 1H D5α): 0.4969; STD % to SP1 (PBP5; 1H D5α): 49.685%; STD amplification factor (PBP5; 1H D5α): 13.3694; STD amplification factor as fraction of highest SP1:PBP5 value (PBP5; 1H DA4α,LA1α): 0.2481; STD % to SP1 (PBP5; 1H DA4α,LA1α): 24.8062%; STD amplification factor (PBP5; 1H DA4α,LA1α): 6.675; STD amplification factor as fraction of highest SP1:PBP5 value (PBP5; 1H DQ2α,Dlacα): 0.2004; STD % to SP1 (PBP5; 1H DQ2α,Dlacα): 20.0424%; STD amplification factor (PBP5; 1H DQ2α,Dlacα): 5.393; STD amplification factor as fraction of highest SP1:PBP5 value (PBP5; 1H K3α): 0.381; STD % to SP1 (PBP5; 1H K3α): 38.104%; STD amplification factor (PBP5; 1H K3α): 10.2532; STD % to SP1 (PBP5; 1H K3β): 51.2163%; STD amplification factor (PBP5; 1H K3β): 13.7815; STD amplification factor as fraction of highest SP1:PBP5 value (PBP5; 1H K3δ): 0.5418; STD % to SP1 (PBP5; 1H K3δ): 54.1786%; STD amplification factor (PBP5; 1H K3δ): 14.5786; STD amplification factor as fraction of highest SP1:PBP5 value (PBP5; 1H K3ε): 0.2671; STD % to SP1 (PBP5; 1H K3ε): 26.7058%; STD amplification factor (PBP5; 1H K3ε): 7.186 |
| D-Ala-D-Ala [SP3] | no CSPs were observed |  |  |  |  |  |  |  |  |  |  |  |  |  |  |  |  |  |  |  |  |
| D-Lac-L-Ala-D-iGln-Gly-D-Ala-D-Ala [SP4, SP with L-Lys(D-iAsn) replaced by Gly] | interacts with PBP5 very poorly | 0.2081 | 20.809 | 5.599 | 0.2717 | 27.1666 | 7.3101 | 0.6761 | 67.6099 | 18.1927 | 0.8081 | 80.8137 | 21.7457 | 0.2977 | 29.7735 | 8.012 |  | 0.2515 | 25.1468 | 6.767 | STD amplification factor as fraction of highest SP1:PBP5 value (PBP5; 1H DA5α): 0.5864; STD % to SP1 (PBP5; 1H DA5α): 58.6405%; STD amplification factor (PBP5; 1H DA5α): 15.7792; STD amplification factor as fraction of highest SP1:PBP5 value (PBP5; 1H DQ2α,Dlacα,DA4α,LA1α): 0.3132; STD % to SP1 (PBP5; 1H DQ2α,Dlacα,DA4α,LA1α): 31.3217%; STD amplification factor (PBP5; 1H DQ2α,Dlacα,DA4α,LA1α): 8.428; STD amplification factor as fraction of highest SP1:PBP5 value (PBP5; 1H G3α): 0.19; STD % to SP1 (PBP5; 1H G3α): 19.0039%; STD amplification factor (PBP5; 1H G3α): 5.114 |
| D-Lac-L-Ala-D-nGln-L-Lys(D-iAsn)-D-Ala-D-Ala [SP6] | more akin to that of SP1 than SP4 | 0.3219 | 32.1881 | 8.661 | 0.4039 | 40.3917 | 10.8688 | 0.9448 | 94.4801 | 25.4231 | 1.053 | 105.321 | 28.3401 | 0.4867 | 48.6725 | 13.097 | 0.991 | 0.4375 | 43.7522 | 11.773 | STD amplification factor as fraction of highest SP1:PBP5 value (PBP5; 1H DA4α,LA1α,DQ2α): 0.3043; STD % to SP1 (PBP5; 1H DA4α,LA1α,DQ2α): 30.434%; STD amplification factor (PBP5; 1H DA4α,LA1α,DQ2α): 8.1893; STD amplification factor as fraction of highest SP1:PBP5 value (PBP5; 1H DA5α): 0.8446; STD % to SP1 (PBP5; 1H DA5α): 84.4584%; STD amplification factor (PBP5; 1H DA5α): 22.7264; STD % to SP1 (PBP5; 1H K3β): 99.098%; STD amplification factor (PBP5; 1H K3β): 26.6657; STD amplification factor as fraction of highest SP1:PBP5 value (PBP5; 1H K3δ): 0.802; STD % to SP1 (PBP5; 1H K3δ): 80.2012%; STD amplification factor (PBP5; 1H K3δ): 21.5809; STD amplification factor as fraction of highest SP1:PBP5 value (PBP5; 1H iNα ,Dlacα,K3α): 0.4025; STD % to SP1 (PBP5; 1H iNα ,Dlacα,K3α): 40.2497%; STD amplification factor (PBP5; 1H iNα ,Dlacα,K3α): 10.8306; STD amplification factor as fraction of highest SP1:PBP5 value (PBP5; 1H iNβ): 0.4322; STD % to SP1 (PBP5; 1H iNβ): 43.2239%; STD amplification factor (PBP5; 1H iNβ): 11.6309 |
